# Tests used:
# genotype 2a 4BAH2 = genotype 2a 4BAH2 (Hepatitis C virus genotype 2a, UniProt Q99IB8); test: DLS assay of 4BAH2-induced POPC lipid vesicle aggregation, genotype 2a peptide; type: biochemical; parameters: purchased Anaspec Corporation (San Jose, Calif., USA); host or cells: chemical synthesis; details: POPC vesicles
# Protocol: Small Unilamellar Vesicle Preparation. Vesicles of 1-palmitoyl-2-oleoyl-sn-glycero-3-phosphocholine (POPC) (Avanti Polar Lipids, Alabaster, Ala., USA) with well-defined size distributions were prepared by the extrusion method. Throughout the experiments, we used a phosphate buffered saline (PBS) buffer (10 mM, pH 7.5 and 150 mM NaCl) in […] MilliQ water (Millipore, Oregon, USA). Extruded vesicles (referred to simply as vesicles) were prepared in the following manner. Lipid films were prepared by first drying the as-supplied lipids dissolved in chloroform under a gentle stream of nitrogen at room temperature. Then the resulting lipid film was stored under vacuum for at least 5 hr in order to remove residual chloroform. Vesicles were prepared by first swelling the lipid film in aqueous solution then vortexing periodically for 5 min. […]
# Dynamic Light Scattering. Dynamic light scattering (DLS) was performed using a doubled, Nd:YAG laser (model 532 DPSS, Coherent Laser Group, Santa Clara, Calif.) with a wavelength, λ, of […] and a Brookhaven digital autocorrelator, and analyzed by digital autocorrelator software (Brookhaven Instruments Corporation, New York, USA). […] DLS results were analyzed to give an intensity-weighted size distribution using a discrete Laplace inversion routine. […]
# Huh7.5 cells = test: Alamar Blue cell viability assay; type: cell-based, human; details: in parallel with replication assays, 72 hr
# genotype 2a 4BAH2, sequence (Q99IB8 1758-1780): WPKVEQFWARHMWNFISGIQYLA
smiles,measurement,setting,value
"CC(C)CN(C)c1nc(N)c(C(=O)NC(=N)N)nc1Cl [C4, 3-amino-N-carbamimidoyl-6-chloro-5-(isobutyl(methyl)amino)pyrazine-2-carboxamide]",Inhibition of genotype 2a 4BAH2-induced vesicle aggregation (DLS),genotype 2a 4BAH2,essentially abrogated
same,Cellular toxicity (Alamar Blue viability),Huh7.5 cells,No significant cellular toxicity

# Reference: patent US20110217265A1, “Screening for Inhibitors of HCV Amphipathic Helix (AH) Function” (priority 2008, published 2011)
